Values quoted from earlier work as cited in patent US8673972B2, “Human papilloma virus as predictor of cancer prognosis” (Foundation Medicine, Inc., priority 2012, dated 2014).

Assays:
Conditions in all cases: stated in words only
[1] = molecular target: CDK1 (Homo sapiens, UniProt P06493)
[2] = molecular target: CDK2 (Homo sapiens, UniProt P24941)
[3] = molecular target: CDK4 (Homo sapiens, UniProt P11802)
[4] = molecular target: CDK7 (Homo sapiens, UniProt P50613)
[5] = molecular target: CDK9 (Homo sapiens, UniProt P50750)
Sequence of CDK9 (P50750 whole entry): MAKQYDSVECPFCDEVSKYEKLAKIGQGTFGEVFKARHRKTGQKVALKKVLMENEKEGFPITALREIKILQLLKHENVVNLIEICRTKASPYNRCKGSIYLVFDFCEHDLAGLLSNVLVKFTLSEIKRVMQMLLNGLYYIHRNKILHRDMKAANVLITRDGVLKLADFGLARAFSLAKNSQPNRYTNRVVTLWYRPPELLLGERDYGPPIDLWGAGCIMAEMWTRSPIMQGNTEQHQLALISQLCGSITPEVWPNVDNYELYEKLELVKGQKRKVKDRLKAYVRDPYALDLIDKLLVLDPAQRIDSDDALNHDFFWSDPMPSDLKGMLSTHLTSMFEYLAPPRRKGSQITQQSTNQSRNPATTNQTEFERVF
Sequence of CDK9 (O60563 whole entry partner): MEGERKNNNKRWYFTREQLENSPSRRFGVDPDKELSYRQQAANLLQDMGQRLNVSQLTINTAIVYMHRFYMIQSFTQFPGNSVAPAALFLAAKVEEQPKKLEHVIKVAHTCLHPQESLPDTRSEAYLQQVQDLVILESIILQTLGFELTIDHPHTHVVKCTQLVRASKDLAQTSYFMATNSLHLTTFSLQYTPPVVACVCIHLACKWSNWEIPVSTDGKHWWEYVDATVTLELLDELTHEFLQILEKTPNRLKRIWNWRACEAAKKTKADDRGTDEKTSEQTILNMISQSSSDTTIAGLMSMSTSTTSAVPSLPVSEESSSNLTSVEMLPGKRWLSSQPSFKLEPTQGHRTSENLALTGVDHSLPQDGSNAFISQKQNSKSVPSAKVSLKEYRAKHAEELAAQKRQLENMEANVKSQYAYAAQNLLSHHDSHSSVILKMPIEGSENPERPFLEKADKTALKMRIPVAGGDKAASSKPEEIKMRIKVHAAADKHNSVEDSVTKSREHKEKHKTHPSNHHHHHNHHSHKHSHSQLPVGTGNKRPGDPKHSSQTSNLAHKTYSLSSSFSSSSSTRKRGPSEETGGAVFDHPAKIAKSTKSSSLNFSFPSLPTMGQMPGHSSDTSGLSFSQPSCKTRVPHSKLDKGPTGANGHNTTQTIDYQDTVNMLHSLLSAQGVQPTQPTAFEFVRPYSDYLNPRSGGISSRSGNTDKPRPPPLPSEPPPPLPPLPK

Sequence of CDK1 (P06493 whole entry): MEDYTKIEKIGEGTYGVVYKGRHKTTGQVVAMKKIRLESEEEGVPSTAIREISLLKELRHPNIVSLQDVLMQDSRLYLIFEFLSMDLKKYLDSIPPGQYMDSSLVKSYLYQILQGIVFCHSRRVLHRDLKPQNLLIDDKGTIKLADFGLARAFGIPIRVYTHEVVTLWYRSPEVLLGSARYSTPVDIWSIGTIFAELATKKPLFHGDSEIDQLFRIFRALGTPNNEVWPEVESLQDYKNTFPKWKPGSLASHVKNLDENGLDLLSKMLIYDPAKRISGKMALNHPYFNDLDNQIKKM
Sequence of CDK1 (P14635 whole entry partner): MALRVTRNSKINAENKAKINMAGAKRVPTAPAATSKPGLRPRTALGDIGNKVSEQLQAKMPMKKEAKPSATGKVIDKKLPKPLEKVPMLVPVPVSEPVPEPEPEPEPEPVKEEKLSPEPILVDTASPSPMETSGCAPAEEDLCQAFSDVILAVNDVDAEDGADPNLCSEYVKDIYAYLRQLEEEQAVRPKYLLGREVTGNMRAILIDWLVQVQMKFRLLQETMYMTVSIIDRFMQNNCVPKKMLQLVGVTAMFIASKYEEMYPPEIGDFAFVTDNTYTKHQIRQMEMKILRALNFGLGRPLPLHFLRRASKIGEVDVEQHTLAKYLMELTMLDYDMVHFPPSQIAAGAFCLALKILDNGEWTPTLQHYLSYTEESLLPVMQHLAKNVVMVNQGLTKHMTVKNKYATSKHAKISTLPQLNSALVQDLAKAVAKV
Sequence of CDK4 (P11802 whole entry): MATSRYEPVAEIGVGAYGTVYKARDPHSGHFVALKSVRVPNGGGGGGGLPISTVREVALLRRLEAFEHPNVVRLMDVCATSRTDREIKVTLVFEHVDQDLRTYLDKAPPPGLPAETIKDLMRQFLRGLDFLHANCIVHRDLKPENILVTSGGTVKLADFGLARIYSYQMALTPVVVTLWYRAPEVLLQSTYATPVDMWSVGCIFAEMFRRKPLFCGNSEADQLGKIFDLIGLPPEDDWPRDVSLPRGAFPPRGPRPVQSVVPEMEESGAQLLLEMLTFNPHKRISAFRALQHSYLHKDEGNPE
Sequence of CDK4 (P24385 whole entry partner): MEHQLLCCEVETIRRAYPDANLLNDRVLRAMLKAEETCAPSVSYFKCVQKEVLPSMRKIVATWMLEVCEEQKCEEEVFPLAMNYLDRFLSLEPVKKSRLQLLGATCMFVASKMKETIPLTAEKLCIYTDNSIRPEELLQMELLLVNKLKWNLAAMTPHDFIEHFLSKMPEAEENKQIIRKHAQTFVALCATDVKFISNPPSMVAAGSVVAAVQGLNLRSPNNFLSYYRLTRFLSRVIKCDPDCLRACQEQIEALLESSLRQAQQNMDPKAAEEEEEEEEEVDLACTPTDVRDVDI
Sequence of CDK7 (P50613 whole entry): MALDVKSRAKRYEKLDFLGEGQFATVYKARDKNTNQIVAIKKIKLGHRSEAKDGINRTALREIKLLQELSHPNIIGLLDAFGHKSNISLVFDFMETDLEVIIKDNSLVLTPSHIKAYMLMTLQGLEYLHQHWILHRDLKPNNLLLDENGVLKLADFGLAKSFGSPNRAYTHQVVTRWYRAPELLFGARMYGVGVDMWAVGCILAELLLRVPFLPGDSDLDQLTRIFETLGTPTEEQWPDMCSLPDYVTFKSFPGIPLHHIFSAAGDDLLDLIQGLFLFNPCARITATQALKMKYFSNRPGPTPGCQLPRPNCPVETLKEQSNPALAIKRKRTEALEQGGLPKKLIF
Sequence of CDK7 (P51946 whole entry partner): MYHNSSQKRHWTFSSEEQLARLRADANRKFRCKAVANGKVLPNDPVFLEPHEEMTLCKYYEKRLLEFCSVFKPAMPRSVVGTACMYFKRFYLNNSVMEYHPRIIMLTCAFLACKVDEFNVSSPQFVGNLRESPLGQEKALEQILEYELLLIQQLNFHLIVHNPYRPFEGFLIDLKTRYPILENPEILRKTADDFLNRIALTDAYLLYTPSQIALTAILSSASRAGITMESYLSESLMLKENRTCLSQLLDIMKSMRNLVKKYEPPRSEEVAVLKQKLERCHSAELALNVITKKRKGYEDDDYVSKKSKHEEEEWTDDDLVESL
Sequence of CDK7 (P51948 whole entry partner): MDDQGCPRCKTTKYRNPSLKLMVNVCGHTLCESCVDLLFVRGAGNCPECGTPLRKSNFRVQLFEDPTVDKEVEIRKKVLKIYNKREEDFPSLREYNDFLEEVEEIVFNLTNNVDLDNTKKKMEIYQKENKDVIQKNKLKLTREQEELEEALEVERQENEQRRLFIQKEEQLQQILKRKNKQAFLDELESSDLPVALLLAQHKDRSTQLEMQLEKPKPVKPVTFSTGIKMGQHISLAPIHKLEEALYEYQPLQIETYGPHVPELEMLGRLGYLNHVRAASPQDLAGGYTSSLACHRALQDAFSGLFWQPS

CC1(C)/C(=C2/C(=O)Nc3ccc(S(N)(=O)=O)cc32)Nc2ccccc21 [ZK-304709, (Z)-3,3-dimethyl-2′-oxo-[2,3′-biindolinylidene]-5′-sulfonamide]
nanomolar range: IC50 CDK1, in words [1] | IC50 CDK2, in words [2] | IC50 CDK4, in words [3] | IC50 CDK7, in words [4] | IC50 CDK9, in words [5]
